Assay results published in patent publication EP4703354A1, “COMPOUND AS CCR6 ANTAGONIST, AND PHARMACEUTICAL COMPOSITION AND USE THEREOF” (Wuhan Createrna Science and Technology Co.,Ltd., priority 2023, dated 2024).

Columns and labels:
[1] = molecular target: T1, human CCR6 (Homo sapiens, UniProt P51684); assay: human CCR6 calcium flux activity (FLIPR, HEK293 cells stably expressing human CCR6, CCL20 stimulation); assay type: cell-based; conditions: for IC50: HEK293 cells stably expressing human CCR6, EC80 human MIP-3 alpha/CCL20, read-out: CCR6 inhibitory activity, IC50; for CCR6 selectivity: ratio of CXCR2 IC50 to CCR6 IC50
T1 construct: expressed in transfected cells; host or cells: HEK293
T1 sequence (P51684 1-374): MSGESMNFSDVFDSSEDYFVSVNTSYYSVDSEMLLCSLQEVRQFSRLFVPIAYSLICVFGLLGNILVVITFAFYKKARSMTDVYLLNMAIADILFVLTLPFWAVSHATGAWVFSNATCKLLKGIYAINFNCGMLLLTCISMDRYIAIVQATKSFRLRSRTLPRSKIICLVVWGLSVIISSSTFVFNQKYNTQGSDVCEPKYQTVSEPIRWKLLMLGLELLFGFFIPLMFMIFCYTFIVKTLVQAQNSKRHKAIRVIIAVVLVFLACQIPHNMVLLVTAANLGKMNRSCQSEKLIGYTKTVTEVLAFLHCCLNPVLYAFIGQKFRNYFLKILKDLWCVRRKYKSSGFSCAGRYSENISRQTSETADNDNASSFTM
Procedure, shortened: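 Compounds preincubated with Fluo-4 Direct-loaded cells 50 min at 37 °C, then 10 min at room temperature, before CCL20 challenge at EC80. Fluorescence (ex 494/em 516 nm) recorded 90 s; max−min signal gives inhibition, four-parameter fit yields IC50.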

[2] = molecular target: T2, human CXCR2 (Homo sapiens, UniProt P25025); assay: human CXCR2 calcium flux activity (FLIPR, HEK293 cells stably expressing human CXCR2, IL-8 stimulation); assay type: cell-based; conditions: HEK293 cells stably expressing human CXCR2, EC80 human IL-8; read-out: CXCR2 inhibitory activity, IC50
T2 construct: expressed in transfected cells; host or cells: HEK293
T2 sequence (P25025 1-360): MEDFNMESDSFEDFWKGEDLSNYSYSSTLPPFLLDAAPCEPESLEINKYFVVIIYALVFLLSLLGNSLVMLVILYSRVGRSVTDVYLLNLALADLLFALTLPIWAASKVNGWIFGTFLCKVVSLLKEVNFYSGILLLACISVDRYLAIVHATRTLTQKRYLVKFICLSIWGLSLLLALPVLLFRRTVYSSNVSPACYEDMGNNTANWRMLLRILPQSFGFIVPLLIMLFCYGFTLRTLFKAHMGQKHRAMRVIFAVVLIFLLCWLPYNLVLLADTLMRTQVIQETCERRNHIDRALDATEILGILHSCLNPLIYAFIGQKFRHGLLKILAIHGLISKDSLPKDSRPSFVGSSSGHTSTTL
Protocol: The activity of the compounds was evaluated using HEK293 cells stably expressing human CXCR2 via the FLIPR platform. A 384-well black cell culture plate (Greiner, 781946) was used, with a seeding density of 20,000 cells/well, and incubated overnight at 37°C in a 5% CO2 incubator. The culture medium in the cell plate wells was removed, and 20 µL of Fluo-4 Direct™ Calcium Assay Buffer (Invitrogen, F10471, Component C), 20 µL of 2× Fluo-4 Direct™ Calcium Assay Reagent (Invitrogen, F10471, Component A) working solution, and 10 µL of 6× test compound working solution were sequentially added to each well. The cell plate was incubated in a 37 °C, 5% CO2 incubator for 50 min, followed by a 10 min incubation at room temperature. Additionally, a 6×EC80 human IL-8 (Sigma, SRP3311) working solution was prepared. After the incubation was completed, 10 µL/well of the 6×EC80 human IL-8 working solution was transferred to the corresponding cell wells using a FLIPR instrument, and the fluorescence signal changes at an excitation wavelength of 494 nm and an emission wavelength of 516 nm were recorded over 130 s. The difference between the maximum fluorescence signal (RFUMax) and the minimum fluorescence signal (RFUMin) was used as the output signal. The compound inhibition rate and the log value of the compound concentration were calculated, and a four-parameter fitting analysis was performed using GraphPad Prism 8 software to obtain the IC50 value of the test compound. Table 1. Inhibitory activity data of compounds against CCR6 and CXCR2

[3] = in vivo pharmacokinetic study in SD rats; conditions: male, rat, plasma; for bioavailability: 1 mg/kg PO vs 1 mg/kg IV, read-out: Oral bioavailability F (%); for AUC(0-t) / Cmax / half-life: 1 mg/kg
Procedure, shortened: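 Male SD rats (180-200 g), 3 per route: single fasted oral gavage in 1% Tween 80 or tail-vein IV bolus in 50% PEG400. Orbital blood into EDTA-K2 sampled to 8 h; plasma analysed and PK parameters derived by non-compartmental analysis.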

Compound	IC50 [1] [nM]	CCR6 selectivity [1]	IC50 [2] [nM]	bioavailability [3] [%]	AUC(0-t) ([3]; IV) [ng·h/mL]	Cmax ([3]; IV) [ng/mL]	AUC(0-t) ([3]; PO) [ng·h/mL]	Cmax ([3]; PO) [ng/mL]	half-life ([3]; PO) [h]	half-life ([3]; IV) [h]
Cc1cccnc1[C@H](Nc1c(Nc2ccnc(C(=O)N(C)C)c2O)c(=O)c1=O)C1(C)CCCC1 [compound 018, (R)-3-hydroxy-N,N-dimethyl-4-((2-(((1-methylcyclopentyl)(3-methylpyridin-2-yl)methyl)amino)-3,4-dioxocyclobut-1-en-1-yl)amino)picolinamide]	11	8363.5	92000	49.1	1160	2240	1710	920	4.3	
CN(C)C(=O)c1nccc(Nc2c(N[C@@H](c3nc(F)ccc3F)C3(C)CCCC3)c(=O)c2=O)c1O [compound 023, (R)-4-((2-(((3,6-difluoropyridin-2-yl)(1-methylcyclopentyl)methyl)amino)-3,4-dioxocyclobut-1-en-1-yl)amino)-3-hydroxy-N,N-dimethylpicolinamide]	0.9	227.0	204	30.5	2020	4130	616	335	2.08	
CN(C)C(=O)c1nccc(Nc2c(N[C@@H](c3nc(F)ccc3Cl)C3(C)CCCC3)c(=O)c2=O)c1O [compound 025, (R)-4-((2-(((3-chloro-6-fluoropyridin-2-yl)(1-methylcyclopentyl)methyl)amino)-3,4-dioxocyclobut-1-en-1-yl)amino)-3-hydroxy-N,N-dimethylpicolinamide]	2.8	282.4	791							
Cc1ccc(C)c([C@H](Nc2c(Nc3ccnc(C(=O)N(C)C)c3O)c(=O)c2=O)C2(C)CCCC2)n1 [compound 051, (R)-4-((2-(((3,6-dimethylpyridin-2-yl)(1-methylcyclopentyl)methyl)amino)-3,4-dioxocyclobut-1-en-1-yl)amino)-3-hydroxy-N,N-dimethylpicolinamide]	12.7	2469.1	31400							
CN(C)C(=O)c1nccc(Nc2c(N[C@@H](c3nc(Cl)ccc3F)C3(C)CCCC3)c(=O)c2=O)c1O [compound 053, (R)-4-((2-(((6-chloro-3-fluoropyridin-2-yl)(1-methylcyclopentyl)methyl)amino)-3,4-dioxocyclobut-1-en-1-yl)amino)-3-hydroxy-N,N-dimethylpicolinamide]	1.5	1163.3	1750	33.1	1800	3890	596	380	2.33	
CC1([C@@H](Nc2c(Nc3ccnc(C(=O)N4CCOCC4)c3O)c(=O)c2=O)c2nc(F)ccc2F)CCCC1 [compound 060, (R)-3-(((3,6-difluoropyridin-2-yl)(1-methylcyclopentyl)methyl)amino)-4-((3-hydroxy-2-(morpholine-4-carbonyl)pyridin-4-yl)amino)cyclobut-3-ene-1,2-dione]	1.9	207.0	393							
CNC(=O)c1c(Cl)ccc(Nc2c(N[C@@H](c3ncccc3C)C3(C)CCCC3)c(=O)c2=O)c1O [compound 064, (R)-6-chloro-2-hydroxy-N-methyl-3-((2-(((1-methylcyclopentyl)(3-methylpyridin-2-yl)methyl)amino)-3,4-dioxocyclobut-1-en-1-yl)amino)benzamide]	6.5	1730.2	11200							
Cc1cc(F)cnc1[C@H](Nc1c(Nc2ccnc(C(=O)N(C)C(C)C)c2O)c(=O)c1=O)C1(C)CCCC1 [compound 066, (R)-4-((2-(((5-fluoro-3-methylpyridin-2-yl)(1-methylcyclopentyl)methyl)amino)-3,4-dioxocyclobut-1-en-1-yl)amino)-3-hydroxy-N-isopropyl-N-methylpicolinamide]	19	2522.7	47900							
CN(C)C(=O)c1nccc(Nc2c(N[C@@H](c3nc(CF)ccc3F)C3(C)CCCC3)c(=O)c2=O)c1O [compound 094, (R)-4-((2-(((3-fluoro-6-(fluoromethyl)pyridin-2-yl)(1-methylcyclopentyl)methyl)amino)-3,4-dioxocyclobut-1-en-1-yl)amino)-3-hydroxy-N,N-dimethylpicolinamide]	1.1	174.73	192	22.8	1210	4460	276	208	2.18	0.37
CN(C)C(=O)c1nccc(Nc2c(N[C@@H](c3cccc(C(F)F)n3)C3(C)CCCC3)c(=O)c2=O)c1O [compound 107, (R)-4-((2-(((6-(difluoromethyl)pyridin-2-yl)(1-methylcyclopentyl)methyl)amino)-3,4-dioxocyclobut-1-en-1-yl)amino)-3-hydroxy-N,N-dimethylpicolinamide]	3.8	196.0	745							
CN(C)C(=O)c1nccc(Nc2c(N[C@@H](c3nc(C(F)F)ccc3F)C3(C)CCCC3)c(=O)c2=O)c1O [compound 109, (R)-4-((2-(((6-(difluoromethyl)-3-fluoropyridin-2-yl)(1-methylcyclopentyl)methyl)amino)-3,4-dioxocyclobut-1-en-1-yl)amino)-3-hydroxy-N,N-dimethylpicolinamide]	2.4	55.5	133	61.8	786	3140	485	264	2.07	0.5
CN(C)C(=O)c1nccc(Nc2c(N[C@@H](C#CC3CCC3)C3(C)CCCC3)c(=O)c2=O)c1O [compound 116, (R)-4-((2-((3-cyclobutyl-1-(1-methylcyclopentyl)prop-2-yn-1-yl)amino)-3,4-dioxocyclobut-1-en-1-yl)amino)-3-hydroxy-N,N-dimethylpicolinamide]	28.9	13.1	379							
